Laboratory results published in US20220241314A1, “COMPOSITIONS AND METHODS FOR TREATMENT OF HEPATITIS B VIRUS INFECTION” (priority 2019, published 2022).
{ppp} = triphosphate

B1: poly-U/UC PAMP: ~100 nt PAMP motif from the HCV genome comprising 5′ppp and the poly U/UC region, recognized by RIG-I; formulated in liposome (nucleic acid)
chain: GGCCAUCCUGUUUUUUUCCCUUUUUUUUUUUCUUUUUUUUUUUUUUUUUUUUUUUUUUUUUUUUUUCUCCUUUUUUUUUCCUCUUUUUUUCCUUUUCUUUCCUUU
modifications: RNA, 5' {ppp}, backbone and methylation of C not given here; formulated in liposome
notes: ~100 nt PAMP motif from the HCV genome comprising 5′ppp and the poly U/UC region, recognized by RIG-I; formulated in liposome

Assays:
[1] = system: innate immune response genes; assay: Innate immune gene mRNA expression (RT-qPCR); assay type: cell-based, human; conditions: HepG2-hNTCP cells, 24 and 72 hours
[2] = system: HBV cccDNA; assay: Time-of-addition experiments on cccDNA synthesis; assay type: cell-based, HBV (Genotype D); conditions: for HBV cccDNA level: HepG2-hNTCP and dHepaRG
Description: FIGS. 3A-3F illustrate that F7 and poly-U/UC PAMP suppress de novo HBV cccDNA synthesis. (3A) Upper: Infection and poly-U/UC PAMP treatment schedule. Cells were treated with 100 ng/ml of poly-U/UC PAMP either for 24 hours before (Pre), for 48 hours after HBV infection (Post), or for 72 hours (pre/post). At 3 dpi cells were harvested and Hirt extracts were prepared (3B) HepG2-hNTCP cells and (3C) dHepaRG cells were analyzed by Southern blot (upper) and RT-qPCR (lower). For RT-qPCR. anal sis, values from DMSO treated control were set to 100% respectively, and data are shown as mean±standard deviations (SD) percentage of cccDNA in control samples. ***P<0.005, and ns=non-significant. (3D) HBV infection and F7 treatment schedule. Cells were treated with F7 (10 μM) either for 24 hours before (Pre), 24 hours during the time of infection (Co), d8 hours after infection (Post), or 96 hours pre/co/post). At 3 Dpi, the cells were harvested and. Hirt extracts prepared HepG2-hNTCP (3E) and dHepaRG cells (3F). Upper panels show Southern blot analysis. Lower panels show or RT-qPCR analysis and percent of cccDNA remaining in treated cells compared to control DMS)-treated cells. Values from DMSO-treated control cultures were set to 100%. Data was presented as mean±standard deviations (SD), *P<0.01, **P<0.005, ***P<0.001, ****P<0.0001 and ns=non-significant. CsA served as a treatment control. For Southern blots the position of mass markers are indicated.
To further define inhibitory effect of F7 and poly-U/UC on cccDNA biosynthesis, time-of-addition experiments were conducted in HepG2-hNTCP and dHepaRG cells. For poly-U/UC PAMP, treatment for 24 hours pre-infection (pre-treatment), from 1 to 3 dpi (post-treatment), and from 24 hours pre-infection onward through 3 dpi (pre/post-treatment) were conducted (FIG. 3A). […]

[3] = system: HBV cccDNA; assay: cccDNA levels in HBV-infected RIG-I or MDA5 knockout HepG2-hNTCP cells (Southern blot); assay type: cell-based, HBV (Genotype D); conditions: HepG2-hNTCP-NT and HepG2-hNTCP-MKO cells, single treatment at 1 dpi, harvested 3 dpi
Description: FIGS. 6A-6D illustrate that F7 and poly-U/UC PAMP specifically signal IRF3 activation through RIG-I to suppress HBV cccDNA. (6A) F7 was administered for 24 hours to HepG2-hNTCP-NT (expressing non-targeting guide RNA), RKO (RIG-I knockout expressing RIG-I-targeting guide RNA), and MKO (MDA5-knock out expressing MDA5-targeting guide RNA). Cells were harvested and analyzed by immunoblot. The levels of protein expression by p-IRF3 (S386 phosphorylated, active IRF3), IRF3 (total IRF), IFIT1, RIG-I, and MDA5 relative to the expression level of tubulin were determined using respective antibodies. (6B) HepG2-hNTCP-NT, RKO, and MKO cells were treated with 100 ng,/ml of X-RNA or 100 ng/ml or 200 ng/ml of poly-U/UC PAMP for 24 hr. Cells were harvested and analyzed by immunoblot as in (6A). (6C and 6D) Cells were infected with HBV at moi of 1000 Geq/cell. After 24 hour cultures were treated with DMSO (−; negative control), CsA (treatment control), (6C) 10 μM) or F7 or (6D) X RNA or poly-U/UC PAMP. Three days later the cells were harvested, Hirt extracts prepared and subjected to Southern blot analysis using as HBV-DNA probe. The positions of mass markers are indicated. Values beneath each lane show percent cccDNA remaining compared to control treatment. […]

Molecule | mRNA expression of innate immune response genes (IFNs, ISGs, IRF3-target genes) [1] | HBV cccDNA level ([2]; F7 10 μM administered once pre or co-treatment, 3 dpi) | HBV cccDNA level ([2]; F7 10 μM administered post-infection or pre/co/post through 3 dpi) | cccDNA levels [3] | synthesis of cccDNA ([2]; poly-U/UC PAMP 100 ng/ml pre-, post- and pre/post-treatment, HepG2-hNTCP and HepaRG cells, 3 dpi)
O=C(Nc1ccc2nc(NC(=O)c3ccc4ccccc4c3)sc2c1)c1ccccc1 [F7, N-(6-benzamido-1,3-benzothiazol-2-yl)naphthalene-2-carboxamide] | induced only IRF3-target gene expression | little effect on HBV cccDNA level | significant suppression of cccDNA levels | reduced cccDNA levels | 
B1 | induced type I and type III IFN and ISG expression |  |  | cccDNA was suppressed | uniformly significantly suppressed
